{"source": "patent US10937641B2", "about": "“MALDI mass spectrometry method” (BiosparQ B.V., priority 2017, dated 2021)", "origin": "cited, not measured here", "conditions": "solubility defined at room temperature as intrinsic solubility", "data": [{"smiles": "N#CC(=Cc1ccc(O)cc1)C(=O)O", "note": "[αCHCA, α-cyano-4-hydroxycinnamic acid]", "values": [{"measurement": "solubility in water", "value": 6, "unit": "mg/mL"}]}]}
